Measurements reported in patent US8017775B2, “1-2-dihydroquinoline derivative having glucocorticoid receptor binding activity” (Santen Pharmaceutical Co., Ltd., priority 2005, dated 2011).

Target: T1, Recombinant human GR (Homo sapiens, UniProt P04150)
T1 construct: purchased Invitrogen P2816
T1 sequence (P04150 1-777): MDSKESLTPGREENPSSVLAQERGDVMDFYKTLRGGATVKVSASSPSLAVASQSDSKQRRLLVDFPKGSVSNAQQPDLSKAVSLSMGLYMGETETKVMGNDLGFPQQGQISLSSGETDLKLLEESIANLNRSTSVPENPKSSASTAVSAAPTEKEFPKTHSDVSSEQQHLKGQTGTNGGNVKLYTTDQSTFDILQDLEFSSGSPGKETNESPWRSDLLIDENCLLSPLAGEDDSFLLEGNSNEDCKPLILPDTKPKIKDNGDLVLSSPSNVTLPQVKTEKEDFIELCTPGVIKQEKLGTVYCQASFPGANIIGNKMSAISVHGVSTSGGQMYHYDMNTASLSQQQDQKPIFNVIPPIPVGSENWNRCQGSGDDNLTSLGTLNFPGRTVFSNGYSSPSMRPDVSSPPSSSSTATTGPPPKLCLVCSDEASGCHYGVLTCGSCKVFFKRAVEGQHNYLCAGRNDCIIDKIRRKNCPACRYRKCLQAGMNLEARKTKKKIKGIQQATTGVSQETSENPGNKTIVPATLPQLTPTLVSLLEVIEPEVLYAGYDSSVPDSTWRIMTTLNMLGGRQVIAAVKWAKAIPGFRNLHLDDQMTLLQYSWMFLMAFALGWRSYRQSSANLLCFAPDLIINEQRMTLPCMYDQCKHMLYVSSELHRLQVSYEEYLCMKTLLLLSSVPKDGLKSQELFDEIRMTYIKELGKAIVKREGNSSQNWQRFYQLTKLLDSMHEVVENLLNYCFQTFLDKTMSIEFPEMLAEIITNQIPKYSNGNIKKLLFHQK
Assay: GR competitor assay by fluorescence polarization (GR binding ratio)
Conditions: positive control 2 mM dexamethasone, a GR binding ratio of 100% or more is indicated by 100%

SMILES | GR Binding ratio (%)
COc1cc(F)ccc1-c1ccc2c(c1COc1cc([N+](=O)[O-])ccc1C)C(C)=CC(C)(C)N2 [Compound 3-72, 6-(4-Fluoro-2-methoxyphenyl)-5-(2-methyl-5-nitrophenoxymethyl)-2,2,4-trimethyl-1,2-dihydroquinoline] | ≥ 100%
COc1ccc(F)cc1-c1ccc2c(c1COc1ccccc1CCO)C(C)=CC(C)(C)N2 [Compound 3-99, 6-(5-Fluoro-2-methoxyphenyl)-5-[2-(2-hydroxyethyl)phenoxymethyl]-2,2,4-trimethyl-1,2-dihydroquinoline] | ≥ 100%
COc1cc(F)ccc1-c1ccc2c(c1CNc1cc(C)ccc1C)C(C)=CC(C)(C)N2 [Compound 6-53, 5-(2,5-Dimethylphenylaminomethyl)-6-(4-fluoro-2-methoxyphenyl)-2,2,4-trimethyl-1,2-dihydroquinoline] | 95%
COc1cc(F)ccc1-c1ccc2c(c1COc1ccccc1C)C(C)=CC(C)(C)N2 [Compound 3-22, 6-(4-Fluoro-2-methoxyphenyl)-5-(2-methylphenoxymethyl)-2,2,4-trimethyl-1,2-dihydroquinoline] | 99%
COc1cc(F)ccc1-c1ccc2c(c1CNc1ccccc1C)C(C)=CC(C)(C)N2 [Compound 6-37, 6-(4-Fluoro-2-methoxyphenyl)-5-(2-methylphenylaminomethyl)-2,2,4-trimethyl-1,2-dihydroquinoline] | ≥ 100%
COc1cc(F)ccc1-c1ccc2c(c1COC(=O)c1cccs1)C(C)=CC(C)(C)N2 [Compound 1-21, 6-(4-Fluoro-2-methoxyphenyl)-5-[(thiophene-2-yl)carbonyloxymethyl]-2,2,4-trimethyl-1,2-dihydroquinoline] | 82%
COc1ccc([N+](=O)[O-])cc1OCc1c(-c2ccc(F)cc2OC)ccc2c1C(C)=CC(C)(C)N2 [Compound 3-61, 6-(4-Fluoro-2-methoxyphenyl)-5-(2-methoxy-5-nitrophenoxymethyl)-2,2,4-trimethyl-1,2-dihydroquinoline] | ≥ 100%
COc1ccccc1NCc1c(-c2cc(F)ccc2OC)ccc2c1C(C)=CC(C)(C)N2 [Compound 6-75, 6-(5-Fluoro-2-methoxyphenyl)-5-(2-methoxyphenylaminomethyl)-2,2,4-trimethyl-1,2-dihydroquinoline] | ≥ 100%

Further lines, results first:

GR Binding ratio (%) | SMILES
≥ 100% | COc1cc(F)c(F)cc1-c1ccc2c(c1COC(=O)c1cccs1)C(C)=CC(C)(C)N2 [Compound 12-53, 6-(4,5-Difluoro-2-methoxyphenyl)-5-[(thiophen-2-yl)carbonyloxymethyl]-2,2,4-trimethyl-1,2-dihydroquinoline]
≥ 100% | COc1ccc(C)cc1-c1ccc2c(c1COc1cc(F)ccc1C)C(C)=CC(C)(C)N2 [Compound 14-11, 5-(5-Fluoro-2-methylphenoxymethyl)-6-(2-methoxy-5-methylphenyl)-2,2,4-trimethyl-1,2-dihydroquinoline]
≥ 100% | CCc1ccc(C(=O)OCc2c(-c3ccc(F)cc3OC)ccc3c2C(C)=CC(C)(C)N3)s1 [Compound 12-20, 5-[(5-Ethylthiophen-2-yl)carbonyloxymethyl]-6-(4-fluoro-2-methoxyphenyl)-2,2,4-trimethyl-1,2-dihydroquinoline]
